{
  "source": "patent US20230372425A1",
  "about": "“TOPICAL COMPOSITIONS CONTAINING MANUKA OIL AND PALMAROSA OIL FOR TREATING SKIN CONDITIONS” (Manuka Therapeutics Ltd., priority 2021, published 2023)",
  "key": {"S. aureus": {"test_system": "S. aureus", "assay": "MIC50 / MIC and MBC testing", "format": "cell-based, Staphylococcus aureus", "settings": "Table 35 (Example 25); 1% ECMO or 1% ECMT, 0.05% CBD pure isolate", "text": "(§1) The MIC50 test evaluates the lowest concentration of a test substance that prevents 50% of the growth of bacteria or fungi. This is a measure of the antibacterial or anti-fungal activity of the test sample. MBC is the lowest concentration of an antibacterial agent required to kill a bacterium. Similarly, Minimum fungicidal concentration (MFC) is the lowest concentration of an antifungal agent required to kill a fungus or a yeast.\n(§2) The disclosed topical compositions may be tested for MIC50 and MBC using publicly available testing criteria. For example, test samples of the desired active compound can be prepared and serially diluted to give 11 or more different concentrations covering, for example, a 1000-fold range. For example, the test samples may include 50%-0.1% of a stock test sample (e.g., stock samples disclosed in Table 1) that are combined with select bacteria and fungi and incubated over a prescribed period of time. The MIC50 is useful to determine the lowest concentration of each test sample (mixture of active materials) that inhibits 50% of the growth of the microbe as determined by measurement of OD650 nm using a Versa Max 96 well plate reader. […]\n(§3) Additional data Minimum Inhibitory Concentration (MIC) data on East Cape manuka oil and β-triketones provide further context. […] MIC data is measured at the first sign of bacterial growth inhibition. […]"}, "S. pyogenes": {"test_system": "S. pyogenes", "assay": "MIC50 / MIC and MBC testing", "format": "cell-based, Streptococcus pyogenes", "settings": "Table 35 (Example 25); 1% ECMO or 1% ECMT, 0.05% CBD pure isolate", "text": "as §1, §2, §3"}, "MRSA": {"test_system": "MRSA", "assay": "MIC50 / MIC and MBC testing", "format": "cell-based, methicillin-resistant Staphylococcus aureus", "settings": "Table 35 (Example 25); 1% ECMO or 1% ECMT, 0.05% CBD pure isolate", "text": "as §1, §2, §3"}, "C. acnes": {"test_system": "C. acnes", "assay": "MIC50 / MIC and MBC testing", "format": "cell-based, Cutibacterium acnes", "text": "as §1\nThe disclosed topical compositions may be tested for MIC50 and MBC using publicly available testing criteria. For example, test samples of the desired active compound can be prepared and serially diluted to give 11 or more different concentrations covering, for example, a 1000-fold range. For example, the test samples may include 50%-0.1% of a stock test sample (e.g., stock samples disclosed in Table 1) that are combined with select bacteria and fungi and incubated over a prescribed period of time. The MIC50 is useful to determine the lowest concentration of each test sample (mixture of active materials) that inhibits 50% of the growth of the microbe as determined by measurement of OD650 nm using a Versa Max 96 well plate reader. Measurement of cell concentration can be made at several time points.\nAdditional data Minimum Inhibitory Concentration (MIC) data on East Cape manuka oil and β-triketones provide further context. (Source: Plant & Food). MIC data is measured at the first sign of bacterial growth inhibition. These figures can be expected to be lower than MIC50 data, though this is not always the case. Published MIC data on palmarosa oil is also included for further context, In Vitro Antimicrobial and Antioxidant Activities of Some Cymbopogon Species in Essential Oil-Bearing Grasses—The genus Cymbopogon, Khunkitti, W. (2010) Chapter 6, Edited by A. Akhila., Medicinal and Aromatic Plants—Industrial Profiles, CRC Press Taylor & Francis Group. Example stock sample solutions of active mixtures that show promising results and are suitable for MIC50 and MBC testing are listed in Table 7. […]"}, "[1]": {"test_system": "gram positive bacteria S aureus, MRSA, S pyogenes, C. acnes", "assay": "Average MIC over gram positive bacteria (Example 25)", "format": "cell-based", "text": "Cannabidiol (CBD) content in CBD oil can be highly variable. For this reason, pure CBD isolate was used in these examples. 1% ECMT or 1% ECMO were used in these examples. Since CBD oil contains 5-10% CBD, a concentration of 0.05% CBD pure isolate (equating to 0.5% to 1% whole CBD oil) was used in these tests.\nThe average MIC of CBD alone is 0.2 times that of ECMO-314. The average MIC of CBD alone is 0.1 times that of ECMT-314. […] The average MIC of ECMT alone is 0.8 times that of ECMT-314."}},
  "data": [
    {"smiles": "C=C(C)[C@@H]1CCC(C)=C[C@H]1c1c(O)cc(CCCCC)cc1O", "note": "[0.05% CBD isolate, cannabidiol]", "values": [
      {"measurement": "MIC", "setting": "S. aureus", "value": 0.05, "unit": "% v/v"},
      {"measurement": "MIC", "setting": "S. pyogenes", "value": 0.002, "unit": "% v/v"},
      {"measurement": "MIC", "setting": "MRSA", "value": 0.0125, "unit": "% v/v"},
      {"measurement": "MIC of ingredient alone, times that of ECMT-314", "setting": "C. acnes; C. acnes considered on its own", "value": 0.95, "unit": "times"},
      {"measurement": "MIC50, expressed as CBD", "setting": "C. acnes; Table 24, studies with manuka oil β-triketones and CBD", "value": "0.006% CBD (v/v) %"},
      {"measurement": "MIC", "setting": "C. acnes; Table 35 (Example 25), 1% ECMO or 1% ECMT, 0.05% CBD pure isolate", "value": 0.006, "unit": "% v/v"},
      {"measurement": "average MIC of ingredient alone, times that of ECMO-314", "setting": "[1]", "value": 0.2, "unit": "times"},
      {"measurement": "average MIC of ingredient alone, times that of ECMT-314", "setting": "[1]", "value": 0.1, "unit": "times"},
      {"measurement": "AVERAGE MIC", "setting": "[1]; Table 35 (Example 25)", "value": 0.018, "unit": "% v/v"}
    ]}
  ]
}
